Experiment: Sonication of magnesium oxide nanopowder with different ligands (functionalization, dispersion)
Format: physicochemical
Experimental: Different capping ligands were selected for the functionalization of magnesium oxide nanoparticles (see FIG. 5). This method is applicable to ligands whose anchoring groups forms stable magnesium complexes such as catecholates, salicylates, phosphates and phosphonates. Even if the affinity of each individual group for the particle surface is low, the multiplicity of anchoring groups provides a strong adsorption. For example, poly-aspartic and poly-glutamic acids were tested for the functionalization of magnesium oxide nanoparticles. In this procedure, the capping ligands were sonicated with the nanoparticles until a complete dispersion was obtained. The stability of the dispersion was evaluated by the absorption spectra of the obtained mixture.
As a starting point for the optimization of the procedure, the magnesium oxide nanoparticles (200 mg) were dispersed in 25 mL of 1% capping agent with continuous stirring at different times. The concentration of nanoparticles and capping agent in the dispersion mixture together with the incubation temperature was optimized to increase the stability of the dispersed nanoparticles. The excess of capping agent was removed by centrifugation and washing with water. […]

Row | SMILES | effect of ligand on magnesium oxide nanomaterial on sonication (magnesium oxide nanopowder sonicated in the presence of the ligand) | dispersion of magnesium oxide nanomaterial with ligand (preliminary results, FIG. 7)
1 | NCCP(=O)(O)O [2-aminoethylphosphonic acid] | dissolved the nanomaterial | –
2 | NCCCC(O)(P(=O)(O)O)P(=O)(O)O [alendronate] | – | good results
